# System: VA-ES-BJ tumor spheroid viability
# Test: Anticancer human tumor VA-ES-BJ cell line growth inhibition;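 further: spheroids exposed to compounds for seven days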;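 on viability, T/C: percent of DMSO vehicle control viability so 100% = untreated growth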
# Details: spheroids with HUVEC and MSC; for IC50: curve of first compound; for viability, T/C: stronger effect = lower value
# From the text: Multicellular complex tumor spheroid response to DNA repair inhibitors in combination with DNA-damaging drugs
# This study explores the anticancer activities of DNA-damaging drugs and inhibitors of DNA damage repair, both as single agents and in combinations. Complex tumor spheroids comprised of malignant cells, endothelial cells and mesenchymal stem cells served as an in vitro model for human solid tumors. This model system incorporates physiologically relevant features and patient-derived or established malignant cell lines with clinically relevant genetic alterations from many tumor types. Twenty-six patient-derived or established malignant cell lines were evaluated representing sarcoma, melanoma, small cell lung cancer (SCLC), non-small cell lung cancer (NSCLC), as well as bladder, ovarian and pancreatic cancers. The concentration ranges selected for each drug and investigational agent were based upon clinically achievable concentrations if the clinical Cmax of the agent was known.
# Compounds. The drugs and compounds olaparib (NSC753686), talazoparib (NSC767125), berzosertib (NSC777718), elimusertib (NSC800525), nedisertib (NSC802822), VX-984 (NSC792969), AZD-1390 (NSC803789), temozolomide (NSC362856), topotecan (NSC609699), trabectedin (NSC813783), staurosporine (NSC755774), and gemcitabine (NSC613327) were obtained from the National Cancer Institute (NCI) Developmental Therapeutics Program Chemical Repository. The FDA-approved anticancer drug set is available from the Developmental Therapeutics Program at https://dtp.cancer.gov/organization/dscb/obtaining/available_plates.htm. […] The stock solutions were prepared in dimethyl sulfoxide (DMSO, Sigma-Aldrich, St. Louis, MO, cat. D2650) at 400-fold the tested concentration and stored at -70 degrees C. Prior to their use, the stock solutions were diluted in fresh medium and the final DMSO concentration in the assay was 0.25% (v/v). All drugs and investigational agents were tested over a range starting from a high concentration at or near the clinical Cmax and decreasing in half-log increments. If the clinical Cmax for an agent had not been determined, the highest concentration tested was 10 microM.
# Cell Lines. The patient-derived cancer cell (PDC) lines: 156681-154-R-J1-PDC, 283228-195-R-J1-PDC, 287954-098-R-J1-PDC, 292921-168-R-J2-PDC, 349418-098-R-PDC, 425362-245-T-J1-PDC, 556581-035-R-J1-PDC, and BL0293-F563-PDC were received from the NCI Patient-Derived Models Repository (PDMR, https://pdmr.cancer.gov). The established cell lines HS-SY-2 (RRID:CVCL_8719), MPNST, and SYO-1 (RRID:CVCL_7146) were obtained from the Sloan Kettering Institute. The alveolar soft parts sarcoma cell line ASPS-1 (RRID:CVCL_S738) was established at the NCI and grown from internal seed stocks. The following established cell lines were purchased from the American Type Culture Collection (ATCC, Manassas, VA): G-401 (ATCC, cat. CRL-1441, RRID:CVCL_0270), SW982 (ATCC, cat. HTB-93, RRID:CVCL_1734), VA-ES-BJ (ATCC, cat. CRL-2138, RRID:CVCL_1785), NCI-H719 (ATCC, cat. CRL-5837, RRID:CVCL_1582), NCI-H196 (ATCC, cat. CRL-5823, RRID:CVCL_1509), NCI-H841 (ATCC, cat. CRL-5845, RRID:CVCL_1595), NCI-H1618 (ATCC, cat. CRL-5879, RRID:CVCL_1480), NCI-H1876 (ATCC, cat. CRL-5902, RRID:CVCL_1503), DMS 114 (ATCC, cat. CRL-2066; RRID:CVCL_1174), NCI-H211 (ATCC, cat. CRL-5824; RRID:CVCL_1529), and SW 1271 (ATCC, cat. CRL-2177, RRID:CVCL_1716). The small cell lung cancer cell line COR-L88 was purchased from Sigma-Aldrich (cat. 92031917-1VL, RRID:CVCL_1141). The non-small cell lung cancer cell lines NCI-H226 (RRID:CVCL_1544) and NCI-H322M (RRID:CVCL_1557) were established at the NCI and grown from internal seed stocks. Pooled donor human umbilical vein endothelial cells (HUVEC, Lonza, cat. CC-2519) and human mesenchymal stem cells (hMSC, Lonza, cat. PT-2501) were purchased from Lonza (Walkersville, MD).
# Cell Culture. All cells were maintained in an incubator at 37 degrees C and 5% CO2 with 95% humidity. […]
# [1] = second compound 0.003 µM, first compound 0.00949 µM
# [2] = second compound 0.003 µM, first compound 0.03 µM
# [3] = second compound 0.003 µM, first compound 0.0949 µM
# [4] = second compound 0.003 µM, first compound 0.3 µM
# [5] = second compound 0.003 µM, first compound 0.949 µM
# [6] = second compound 0.003 µM, first compound 3 µM
# [7] = second compound 0.00949 µM, first compound 0.00949 µM
# [8] = second compound 0.00949 µM, first compound 0.03 µM
# [9] = second compound 0.00949 µM, first compound 0.0949 µM
# [10] = second compound 0.00949 µM, first compound 0.3 µM
# [11] = second compound 0.00949 µM, first compound 0.949 µM
# [12] = second compound 0.00949 µM, first compound 3 µM
# [13] = second compound 0.03 µM, first compound 0.00949 µM
# [14] = second compound 0.03 µM, first compound 0.03 µM
# [15] = second compound 0.03 µM, first compound 0.0949 µM
# [16] = second compound 0.03 µM, first compound 0.3 µM
# [17] = second compound 0.03 µM, first compound 0.949 µM
# [18] = second compound 0.03 µM, first compound 3 µM
# [19] = second compound 0.0949 µM, first compound 0.00949 µM
# [20] = second compound 0.0949 µM, first compound 0.03 µM
# [21] = second compound 0.0949 µM, first compound 0.0949 µM
# [22] = second compound 0.0949 µM, first compound 0.3 µM
# [23] = second compound 0.0949 µM, first compound 0.949 µM
# [24] = second compound 0.0949 µM, first compound 3 µM
# [25] = second compound 0.3 µM, first compound 0.00949 µM
# [26] = second compound 0.3 µM, first compound 0.03 µM
# [27] = second compound 0.3 µM, first compound 0.0949 µM
# [28] = second compound 0.3 µM, first compound 0.3 µM
# [29] = second compound 0.3 µM, first compound 0.949 µM
# [30] = second compound 0.3 µM, first compound 3 µM
Structure (SMILES),IC50 (second compound 0.003 µM),IC50 (second compound 0.00949 µM),IC50 (second compound 0.03 µM),IC50 (second compound 0.0949 µM),IC50 (second compound 0.3 µM),"viability, T/C [1]","viability, T/C [2]","viability, T/C [3]","viability, T/C [4]","viability, T/C [5]","viability, T/C [6]","viability, T/C [7]","viability, T/C [8]","viability, T/C [9]","viability, T/C [10]","viability, T/C [11]","viability, T/C [12]","viability, T/C [13]","viability, T/C [14]","viability, T/C [15]",other results
CNCc1ccc(-c2cc(-c3nc(-c4ccc(S(=O)(=O)C(C)C)cc4)cnc3N)on2)cc1 + CC[C@@]1(O)C(=O)OCc2c1cc1n(c2=O)Cc2cc3c(CN(C)C)c(O)ccc3nc2-1,258 nM,139 nM,< 9.49 nM,< 9.49 nM,< 9.49 nM,90.9%,83%,71.7%,49.4%,15.1%,6.06%,86.5%,81.1%,59%,30.7%,12.4%,4.37%,42.3%,42.3%,38.1%,"viability, T/C [16]: 27.9%; viability, T/C [17]: 9.05%; viability, T/C [18]: 3.26%; viability, T/C [19]: 8.5%; viability, T/C [20]: 10%; viability, T/C [21]: 13.8%; viability, T/C [22]: 10.3%; viability, T/C [23]: 5.27%; viability, T/C [24]: 2.78%; viability, T/C [25]: 4.36%; viability, T/C [26]: 5.51%; viability, T/C [27]: 5.44%; viability, T/C [28]: 4.99%; viability, T/C [29]: 4.31%; viability, T/C [30]: 3.27%"
Cc1sc2c(c1C)C(c1ccc(Cl)cc1)=NC(CC(=O)Nc1ccc(O)cc1)c1nnc(C)n1-2 (stereo not given) + CC[C@@]1(O)C(=O)OCc2c1cc1n(c2=O)Cc2cc3c(CN(C)C)c(O)ccc3nc2-1,101 nM,45.4 nM,< 9.49 nM,< 9.49 nM,< 9.49 nM,78.5%,75.2%,47%,34.7%,23.3%,19%,66.1%,55.6%,40.1%,28.6%,18.4%,13.5%,30.7%,33.7%,23.1%,"viability, T/C [16]: 13.3%; viability, T/C [17]: 5.6%; viability, T/C [18]: 5.34%; viability, T/C [19]: 5.99%; viability, T/C [20]: 5.36%; viability, T/C [21]: 5.41%; viability, T/C [22]: 4.64%; viability, T/C [23]: 4.96%; viability, T/C [24]: 3.57%; viability, T/C [25]: 5.26%; viability, T/C [26]: 5.21%; viability, T/C [27]: 4.85%; viability, T/C [28]: 4.65%; viability, T/C [29]: 4.55%; viability, T/C [30]: 3.36%"

# Source: PubChem BioAssay AID1845217 (Molecular Pharmacology Branch, DTP, NCI, 2023)
